pIC50: −log10 of the molar value.
Key:
CDK2/CycE = biological target: T1, CDK2/CycE (Homo sapiens, UniProt P24941); assay: CDK2/CycE kinase assay (TR-FRET, 2 mM ATP); format: biochemical; settings: 2 mM ATP (high ATP); median; read-out: CDK2/CyclinE, 2 mM ATP (high ATP), IC50 (median)
T1 construct: purchased ProQinase GmbH (Freiburg, Germany); host or cells: insect cells (Sf9)
Summary of the method: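 Biotin-peptide phosphorylation (0.75 µM substrate, 2 mM ATP final, 25 min, 22 °C) by Sf9-expressed GST-CDK2/GST-CycE, after a 15-min compound pre-binding step. Inhibition scaled between enzyme-free (100%) and uninhibited (0%) wells.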

CDK9/CycT1 = biological target: T2, CDK9/CycT1 (Homo sapiens, UniProt P50750); assay: CDK9/CycT1 high ATP kinase assay (TR-FRET, 2 mM ATP); format: biochemical; settings: 2 mM ATP (high ATP); median; read-out: CDK9/CyclinT1, 2 mM ATP (high ATP), IC50 (median)
T2 construct: Recombinant full-length His-tagged human CDK9 and CycT1; purchased Life Technologies PV4131; host or cells: insect cells
Summary of the method: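 Full-length His-tagged human CDK9/CycT1 (insect cell, ~0.5 μg/mL) preincubated 15 min at 22 °C with compound in Tris pH 8.0, MgCl2, DTT buffer before reaction with biotinylated peptide substrate at high ATP (2 mM).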

T2 sequence (P50750 whole entry): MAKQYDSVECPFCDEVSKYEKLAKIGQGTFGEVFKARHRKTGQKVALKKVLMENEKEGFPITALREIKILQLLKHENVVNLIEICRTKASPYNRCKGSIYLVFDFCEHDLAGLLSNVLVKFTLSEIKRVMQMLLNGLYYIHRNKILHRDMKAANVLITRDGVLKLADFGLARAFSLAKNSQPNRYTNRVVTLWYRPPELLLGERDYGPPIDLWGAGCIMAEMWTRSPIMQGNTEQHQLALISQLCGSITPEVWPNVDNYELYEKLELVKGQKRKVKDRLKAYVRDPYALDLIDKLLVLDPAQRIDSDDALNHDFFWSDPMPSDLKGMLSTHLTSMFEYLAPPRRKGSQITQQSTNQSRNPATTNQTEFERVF
T2 sequence (O60563 whole entry partner): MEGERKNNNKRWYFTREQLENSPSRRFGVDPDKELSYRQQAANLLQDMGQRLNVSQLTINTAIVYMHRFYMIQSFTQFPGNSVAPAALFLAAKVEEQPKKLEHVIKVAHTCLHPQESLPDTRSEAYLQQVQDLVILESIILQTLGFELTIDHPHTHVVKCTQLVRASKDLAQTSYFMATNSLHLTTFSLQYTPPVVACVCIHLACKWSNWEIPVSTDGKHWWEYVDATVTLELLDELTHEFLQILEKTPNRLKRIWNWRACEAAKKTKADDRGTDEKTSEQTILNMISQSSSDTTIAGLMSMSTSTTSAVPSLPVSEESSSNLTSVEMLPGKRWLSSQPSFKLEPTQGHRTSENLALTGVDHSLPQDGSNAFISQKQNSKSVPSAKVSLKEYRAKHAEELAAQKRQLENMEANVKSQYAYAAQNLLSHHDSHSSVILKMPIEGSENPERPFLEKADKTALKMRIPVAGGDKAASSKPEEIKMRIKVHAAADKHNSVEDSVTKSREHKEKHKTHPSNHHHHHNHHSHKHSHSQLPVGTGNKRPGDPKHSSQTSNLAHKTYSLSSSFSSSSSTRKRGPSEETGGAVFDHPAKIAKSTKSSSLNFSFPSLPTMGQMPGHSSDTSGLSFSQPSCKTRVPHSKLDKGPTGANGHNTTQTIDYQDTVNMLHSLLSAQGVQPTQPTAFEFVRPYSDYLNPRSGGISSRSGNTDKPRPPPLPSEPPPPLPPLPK

Row | pIC50 (CDK2/CycE) | pIC50 (CDK9/CycT1) | Structure (SMILES)
1 | < 4.70 | < 4.70 | CN1CCN(c2nc(NCc3nc4cc(Cl)c(Cl)cc4[nH]3)n3ncc(-c4cnn(C)c4)c3n2)CC1 [Example 420, N-[(5,6-dichloro-1H-benzimidazol-2-yl)methyl]-2-(4-methylpiperazin-1-yl)-8-(1-methyl-1H-pyrazol-4-yl)pyrazolo[1,5-a][1,3,5]triazin-4-amine]
2 | < 4.70 | < 4.70 | FC(F)n1cc(-c2cnn3c(NCc4nc5ccccc5[nH]4)nc(N4CCOCC4)nc23)cn1 [Example 421, N-[(1H-benzimidazol-2-yl)methyl]-8-[1-(difluoromethyl)-1H-pyrazol-4-yl]-2-(morpholin-4-yl)pyrazolo[1,5-a][1,3,5]triazin-4-amine]
3 | < 4.70 | < 4.70 | FC(F)n1cc(-c2cnn3c(NCc4nc5cc(Cl)c(Cl)cc5[nH]4)nc(N4CCOCC4)nc23)cn1 [Example 423, N-[(5,6-dichloro-1H-benzimidazol-2-yl)methyl]-8-[1-(difluoromethyl)-1H-pyrazol-4-yl]-2-(morpholin-4-yl)pyrazolo[1,5-a][1,3,5]triazin-4-amine]
4 | < 4.70 | < 4.70 | Clc1cc2nc(CNc3nc(N4CCOCC4)nc4c(-c5cscn5)cnn34)[nH]c2cc1Cl [Example 424, N-[(5,6-dichloro-1H-benzimidazol-2-yl)methyl]-2-(morpholin-4-yl)-8-(1,3-thiazol-4-yl)pyrazolo [1,5-a][1,3,5]triazin-4-amine]
5 | < 4.70 | < 4.70 | Fc1ccc2[nH]c(CNc3nc(N4CCOCC4)nc4c(CC(F)F)cnn34)nc2c1F.O=C(O)C(F)(F)F [Example 425, trifluoroacetic acid N-[(4,5-difluoro-1H-benzimidazol-2-yl)methyl]-8-(2,2-difluoroethyl)-2-(morpholin-4-yl)pyrazolo[1,5-a][1,3,5]triazin-4-amine]
6 | 4.76 | 4.90 | Fc1ccc2[nH]c(CNc3nc(N4CCOCC4)nc4c(C(F)(F)F)cnn34)nc2c1F [Example 426, N-[(4,5-difluoro-1H-benzimidazol-2-yl)methyl]-2-(morpholin-4-yl)-8-(trifluoromethyl)pyrazolo [1,5-a][1,3,5]triazin-4-amine]
7 | 5.28 | 5.37 | FC(F)(F)c1cnn2c(NCc3nnc(-c4ccccc4)[nH]3)nc(N3CCOCC3)nc12 [Example 427, 2-(morpholin-4-yl)-N-[(5-phenyl-4H-1,2,4-triazol-3-yl)methyl]-8-(trifluoromethyl)pyrazolo[1,5-a][1,3,5]triazin-4-amine]
8 | < 4.70 | < 4.70 | CN1CCN(c2nc(NCc3nc4ccccc4[nH]3)n3ncc(C4CC4(F)F)c3n2)CC1 (stereo not shown) [Example 428, N-(1H-benzimidazol-2-ylmethyl)-8-(2,2-difluorocyclopropyl)-2-(4-methylpiperazin-1-yl)pyrazolo[1,5-a][1,3,5]triazin-4-amine]
9 | < 4.70 | < 4.70 | CN1CCN(c2nc(NCc3nc4c(F)c(F)ccc4[nH]3)n3ncc(C4CC4(F)F)c3n2)CC1 (stereo not shown) [Example 429, N-[(4,5-difluoro-1H-benzimidazol-2-yl)methyl]-8-(2,2-difluorocyclopropyl)-2-(4-methylpiperazin-1-yl)pyrazolo[1,5-a][1,3,5]triazin-4-amine]
10 | < 4.70 | < 4.70 | COc1ccccc1-c1nnc(CNc2nc(N3CCN(C)CC3)nc3c(C4CC4(F)F)cnn23)[nH]1 (stereo not shown) [Example 430, 8-(2,2-difluorocyclopropyl)-N-{[5-(2-methoxyphenyl)-4H-1,2,4-triazol-3-yl]methyl}-2-(4-methylpiperazin-1-yl)pyrazolo[1,5-a][1,3,5]triazin-4-amine]
11 | 5.80 | < 4.70 | CCc1cnn2c(NCc3nc4ccccc4[nH]3)nc(N3CCOCC3)nc12 [Example 431, N-[(1H-benzimidazol-2-yl)methyl]-8-ethyl-2-(morpholin-4-yl)pyrazolo[1,5-a][1,3,5]triazin-4-amine]
12 | 5.12 | 4.80 | CCc1cnn2c(NCc3nc4c(F)c(F)ccc4[nH]3)nc(N3CCOCC3)nc12 [Example 432, N-[(4,5-difluoro-1H-benzimidazol-2-yl)methyl]-8-ethyl-2-(morpholin-4-yl)pyrazolo[1,5-a][1,3,5]triazin-4-amine]
13 | 5.75 | < 4.70 | CCc1cnn2c(NCc3nc4c(OC)cccc4[nH]3)nc(N3CCOCC3)nc12 [Example 433, 8-ethyl-N-[(4-methoxy-1H-benzimidazol-2-yl)methyl]-2-(morpholin-4-yl)pyrazolo[1,5-a][1,3,5]triazin-4-amine]
14 | 5.20 | < 4.70 | CCc1cnn2c(NCc3nc4ccccc4[nH]3)nc(N3CCN(C)CC3)nc12 [Example 434, N-[(1H-benzimidazol-2-yl)methyl]-8-ethyl-2-(4-methylpiperazin-1-yl)pyrazolo[1,5-a][1,3,5] triazin-4-amine]
15 | < 4.70 | < 4.70 | CN1CCN(c2nc(NCc3nc4ccccc4[nH]3)n3ncc(CC(F)(F)F)c3n2)CC1 [Example 436, N-[(1H-benzimidazol-2-yl)methyl]-2-(4-methylpiperazin-1-yl)-8-(2,2,2-trifluoroethyl)pyrazolo [1,5-a][1,3,5]triazin-4-amine]
16 | < 4.70 | < 4.70 | CN1CCN(c2nc(NCc3nc4c(F)c(F)ccc4[nH]3)n3ncc(CC(F)(F)F)c3n2)CC1 [Example 437, N-[(4,5-difluoro-1H-benzimidazol-2-yl)methyl]-2-(4-methylpiperazin-1-yl)-8-(2,2,2-trifluoroethyl) pyrazolo[1,5-a][1,3,5]triazin-4-amine]
17 | < 4.70 | < 4.70 | O=C(O)C(F)(F)F.c1ccc2[nH]c(CNc3nc(N4CCOCC4)nc4c(-c5ccnnc5)cnn34)nc2c1 [Example 438, trifluoroacetic acid N-[(1H-benzimidazol-2-yl)methyl]-2-(morpholin-4-yl)-8-(pyridazin-4-yl)pyrazolo[1,5-a][1,3,5]triazin-4-amine]
18 | < 4.70 | < 4.70 | COc1cccc2nc(CNc3nc(N4CCOCC4)nc4c(-c5ccnnc5)cnn34)[nH]c12.O=C(O)C(F)(F)F [Example 439, trifluoroacetic acid N-[(7-methoxy-1H-benzimidazol-2-yl)methyl]-2-(morpholin-4-yl)-8-(pyridazin-4-yl)pyrazolo[1,5-a][1,3,5]triazin-4-amine]
19 | < 4.70 | < 4.70 | Clc1cc2nc(CNc3nc(N4CCOCC4)nc4c(-c5ccnnc5)cnn34)[nH]c2cc1Cl.O=C(O)C(F)(F)F [Example 440, trifluoroacetic acid N-[(5,6-dichloro-1H-benzimidazol-2-yl)methyl]-2-(morpholin-4-yl)-8-(pyridazin-4-yl)pyrazolo[1,5-a][1,3,5]triazin-4-amine]
20 | < 4.70 | < 4.70 | O=C(O)C(F)(F)F.c1ccc2[nH]c(CNc3nc(N4CCOCC4)nc4c(-c5cncs5)cnn34)nc2c1 [Example 441, trifluoroacetic acid-N-[(1H-benzimidazol-2-yl)methyl]-2-(morpholin-4-yl)-8-(1,3-thiazol-5-yl)pyrazolo[1,5-a][1,3,5]triazin-4-amine (1/1)]
21 | < 4.70 | < 4.70 | Fc1ccc2[nH]c(CNc3nc(N4CCOCC4)nc4c(-c5cncs5)cnn34)nc2c1F.O=C(O)C(F)(F)F [Example 442, trifluoroacetic acid N-[(4,5-difluoro-1H-benzimidazol-2-yl)methyl]-2-(morpholin-4-yl)-8-(1,3-thiazol-5-yl)pyrazolo[1,5-a][1,3,5]triazin-4-amine]
22 | < 4.70 | < 4.70 | Clc1cc2nc(CNc3nc(N4CCOCC4)nc4c(-c5cncs5)cnn34)[nH]c2cc1Cl [Example 443, N-[(5,6-dichloro-1H-benzimidazol-2-yl)methyl]-2-(morpholin-4-yl)-8-(1,3-thiazol-5-yl)pyrazolo[1,5-a][1,3,5]triazin-4-amine]
23 | 4.81 | < 4.70 | FC(F)Cc1cnn2c(NCc3nc4ccccc4[nH]3)nc(N3CCOCC3)nc12.O=C(O)C(F)(F)F [Example 444, trifluoroacetic acid N-[(1H-benzimidazol-2-yl)methyl]-8-(2,2-difluoroethyl)-2-(morpholin-4-yl)pyrazolo[1,5-a][1,3,5]triazin-4-amine]
